Reference: PubChem BioAssay (NCI)
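These data come from cells grown in 96-well plates and exposed to compound for 48 hours at five concentrations. Abbreviation: GI50, concentration required for 50% inhibition of growth. TGI: total growth inhibition.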

Tests used:
Experiment in all cases: growth of human tumour cells (NCI), 48 h
786-0 renal = test system: 786-0 renal
A498 renal = test system: A498 renal
A549 NSCLC = test system: A549 NSCLC
ACHN renal = test system: ACHN renal
BT-549 breast = test system: BT-549 breast
CAKI-1 renal = test system: CAKI-1 renal
CCRF-CEM leukemia = test system: CCRF-CEM leukemia
COLO 205 colon = test system: COLO 205 colon
DU-145 prostate = test system: DU-145 prostate
EKVX NSCLC = test system: EKVX NSCLC
HCC-2998 colon = test system: HCC-2998 colon
HCT-116 colon = test system: HCT-116 colon
HCT-15 colon = test system: HCT-15 colon
HL-60(TB) leukemia = test system: HL-60(TB) leukemia
HOP-62 NSCLC = test system: HOP-62 NSCLC
HS 578T breast = test system: HS 578T breast
HT29 colon = test system: HT29 colon
IGROV1 ovarian = test system: IGROV1 ovarian
K-562 leukemia = test system: K-562 leukemia
KM12 colon = test system: KM12 colon
LOX IMVI melanoma = test system: LOX IMVI melanoma
M14 melanoma = test system: M14 melanoma
MALME-3M melanoma = test system: MALME-3M melanoma
MCF7 breast = test system: MCF7 breast
MDA-MB-231 breast = test system: MDA-MB-231 breast
MDA-MB-435 = test system: MDA-MB-435
MOLT-4 leukemia = test system: MOLT-4 leukemia
NCI-H226 lung = test system: NCI-H226 lung
NCI-H23 lung = test system: NCI-H23 lung
NCI-H460 lung = test system: NCI-H460 lung
NCI-H522 lung = test system: NCI-H522 lung
NCI/ADR-RES ovarian = test system: NCI/ADR-RES ovarian
OVCAR-3 ovarian = test system: OVCAR-3 ovarian
OVCAR-5 ovarian = test system: OVCAR-5 ovarian
OVCAR-8 ovarian = test system: OVCAR-8 ovarian
PC-3 prostate = test system: PC-3 prostate
RPMI-8226 leukemia = test system: RPMI-8226 leukemia
RXF 393 renal = test system: RXF 393 renal
SF-268 CNS = test system: SF-268 CNS
SF-295 CNS = test system: SF-295 CNS
SF-539 CNS = test system: SF-539 CNS
SK-MEL-28 melanoma = test system: SK-MEL-28 melanoma
SK-MEL-5 melanoma = test system: SK-MEL-5 melanoma
SK-OV-3 ovarian = test system: SK-OV-3 ovarian
SN12C renal = test system: SN12C renal
SNB-19 CNS = test system: SNB-19 CNS
SNB-75 CNS = test system: SNB-75 CNS
SR leukemia = test system: SR leukemia
SW-620 colon = test system: SW-620 colon
T-47D breast = test system: T-47D breast
TK-10 renal = test system: TK-10 renal
U251 CNS = test system: U251 CNS
UACC-257 melanoma = test system: UACC-257 melanoma
UACC-62 melanoma = test system: UACC-62 melanoma
UO-31 renal = test system: UO-31 renal

N#Cc1c(Br)n(C2OC(CO)C(O)C2O)c2ncn3ccnc3c12 (stereo not given)
GI50 (786-0 renal): > 100 µM
TGI (786-0 renal): > 100 µM
GI50 (A498 renal): 19.9 µM
TGI (A498 renal): > 100 µM
GI50 (A549 NSCLC): > 100 µM
TGI (A549 NSCLC): > 100 µM
GI50 (ACHN renal): 57.6 µM
TGI (ACHN renal): > 100 µM
GI50 (BT-549 breast): > 100 µM
TGI (BT-549 breast): > 100 µM
GI50 (CAKI-1 renal): > 100 µM
TGI (CAKI-1 renal): > 100 µM
GI50 (CCRF-CEM leukemia): > 100 µM
TGI (CCRF-CEM leukemia): > 100 µM
GI50 (COLO 205 colon): 55.1 µM
TGI (COLO 205 colon): > 100 µM
GI50 (DU-145 prostate): 69.5 µM
TGI (DU-145 prostate): > 100 µM
GI50 (EKVX NSCLC): > 100 µM
TGI (EKVX NSCLC): > 100 µM
GI50 (HCC-2998 colon): > 100 µM
TGI (HCC-2998 colon): > 100 µM
GI50 (HCT-116 colon): 46.8 µM
TGI (HCT-116 colon): > 100 µM
GI50 (HCT-15 colon): > 100 µM
TGI (HCT-15 colon): > 100 µM
GI50 (HL-60(TB) leukemia): > 100 µM
TGI (HL-60(TB) leukemia): > 100 µM
GI50 (HOP-62 NSCLC): > 100 µM
TGI (HOP-62 NSCLC): > 100 µM
GI50 (HS 578T breast): > 100 µM
TGI (HS 578T breast): > 100 µM
GI50 (HT29 colon): 65.3 µM
TGI (HT29 colon): > 100 µM
GI50 (IGROV1 ovarian): 81.9 µM
TGI (IGROV1 ovarian): > 100 µM
GI50 (K-562 leukemia): 62.4 µM
TGI (K-562 leukemia): > 100 µM
GI50 (KM12 colon): > 100 µM
TGI (KM12 colon): > 100 µM
GI50 (LOX IMVI melanoma): 60.1 µM
TGI (LOX IMVI melanoma): > 100 µM
GI50 (M14 melanoma): > 100 µM
TGI (M14 melanoma): > 100 µM
GI50 (MALME-3M melanoma): > 100 µM
TGI (MALME-3M melanoma): > 100 µM
GI50 (MCF7 breast): > 100 µM
TGI (MCF7 breast): > 100 µM
GI50 (MDA-MB-231 breast): > 100 µM
TGI (MDA-MB-231 breast): > 100 µM
GI50 (MDA-MB-435): > 100 µM
TGI (MDA-MB-435): > 100 µM
GI50 (MOLT-4 leukemia): 41.9 µM
TGI (MOLT-4 leukemia): > 100 µM
GI50 (NCI-H226 lung): 40.6 µM
TGI (NCI-H226 lung): > 100 µM
GI50 (NCI-H23 lung): > 100 µM
TGI (NCI-H23 lung): > 100 µM
GI50 (NCI-H460 lung): 40.7 µM
TGI (NCI-H460 lung): > 100 µM
GI50 (NCI-H522 lung): > 100 µM
TGI (NCI-H522 lung): > 100 µM
GI50 (NCI/ADR-RES ovarian): > 100 µM
TGI (NCI/ADR-RES ovarian): > 100 µM
GI50 (OVCAR-3 ovarian): > 100 µM
TGI (OVCAR-3 ovarian): > 100 µM
GI50 (OVCAR-5 ovarian): > 100 µM
TGI (OVCAR-5 ovarian): > 100 µM
GI50 (OVCAR-8 ovarian): 52.3 µM
TGI (OVCAR-8 ovarian): > 100 µM
GI50 (PC-3 prostate): 63.8 µM
TGI (PC-3 prostate): > 100 µM
GI50 (RPMI-8226 leukemia): > 100 µM
TGI (RPMI-8226 leukemia): > 100 µM
GI50 (RXF 393 renal): 86.7 µM
TGI (RXF 393 renal): > 100 µM
GI50 (SF-268 CNS): 58 µM
TGI (SF-268 CNS): > 100 µM
GI50 (SF-295 CNS): > 100 µM
TGI (SF-295 CNS): > 100 µM
GI50 (SF-539 CNS): > 100 µM
TGI (SF-539 CNS): > 100 µM
GI50 (SK-MEL-28 melanoma): > 100 µM
TGI (SK-MEL-28 melanoma): > 100 µM
GI50 (SK-MEL-5 melanoma): 64 µM
TGI (SK-MEL-5 melanoma): > 100 µM
GI50 (SK-OV-3 ovarian): > 100 µM
TGI (SK-OV-3 ovarian): > 100 µM
GI50 (SN12C renal): > 100 µM
TGI (SN12C renal): > 100 µM
GI50 (SNB-19 CNS): > 100 µM
TGI (SNB-19 CNS): > 100 µM
GI50 (SNB-75 CNS): > 100 µM
TGI (SNB-75 CNS): > 100 µM
GI50 (SR leukemia): 50.7 µM
TGI (SR leukemia): > 100 µM
GI50 (SW-620 colon): 44.1 µM
TGI (SW-620 colon): > 100 µM
GI50 (T-47D breast): > 100 µM
TGI (T-47D breast): > 100 µM
GI50 (TK-10 renal): > 100 µM
TGI (TK-10 renal): > 100 µM
GI50 (U251 CNS): > 100 µM
TGI (U251 CNS): > 100 µM
GI50 (UACC-257 melanoma): > 100 µM
TGI (UACC-257 melanoma): > 100 µM
GI50 (UACC-62 melanoma): > 100 µM
TGI (UACC-62 melanoma): > 100 µM
GI50 (UO-31 renal): 53.6 µM
TGI (UO-31 renal): > 100 µM
